The record followed here is patent US7414061B2, “Aryl-isoxazol-4-yl-imidazole derivatives” (Hoffmann-La Roche Inc., priority 2005, dated 2008).

The first assay addresses T1, GABA A receptor α5β3γ2 (hα5) (Homo sapiens, UniProt P18507+P31644).
T1 construct: expressed in transfected cells; host or cells: HEK293 (transiently transfected), membrane preparation
In words: [3H]flumazenil competition binding assay, human GABA A α5β3γ2.
Details: not given
Usually Ki stands for the dissociation constant of the complex between target and ligand, obtained from inhibition or displacement. Turning to `C#CCNC(=O)c1ccc(-n2cnc(-c3c(-c4ccccc4)noc3C)c2)cc1` [Example 72, 4-[4-(5-Methyl-3-phenyl-isoxazol-4-yl)-imidazol-1-yl]-N-prop-2-ynyl-benzamide], the affinity corresponds to a Ki of 13.2 nM.

The same assay, now with this note: displacement of [3H]flumazenil (0.5 nM) from HEK293 cell membranes expressing α5β3γ2; means of two determinations; read-out: Ki[nM] hα5.
On to `Cc1onc(-c2ccc(F)cc2)c1-c1cn(-c2ccncc2)cn1` [Example 117, 4-{4-[3-(4-Fluoro-phenyl)-5-methyl-isoxazol-4-yl]-imidazol-1-yl}-pyridine], for which the inhibitory constant (Ki) was found to be 13.3 nM.

As to `Cc1cccc(COCc2nc(-c3c(-c4ccccc4)noc3C)cn2-c2ccc([N+](=O)[O-])cc2)n1` [Example 162, 2-Methyl-6-[4-(5-methyl-3-phenyl-isoxazol-4-yl)-1-(4-nitro-phenyl)-1H-imidazol-2-ylmethoxymethyl]-pyridine], the Ki was 28.2 nM. Consider `Cc1onc(-c2ccccc2)c1-c1cn(-c2ccc(C(=O)NC3CCOCC3)cc2)cn1` [Example 77, 4-[4-(5-Methyl-3-phenyl-isoxazol-4-yl)-imidazol-1-yl]-N-(tetrahydro-pyran-4-yl)-benzamide], for which the Ki worked out at 27.3 nM. Still for that read-out and setting: to `CC(=O)c1ccc(-n2cnc(-c3c(-c4ccc(F)cc4)noc3C)c2)cc1` [Example 46, 1-(4-{4-[3-(4-Fluoro-phenyl)-5-methyl-isoxazol-4-yl]-imidazol-1-yl}-phenyl)-ethanone] belongs 4.7 nM; to `N#Cc1ccc(-n2cnc(-c3c(-c4ccccc4)noc3CO)c2)cc1` [Example 139, 4-[4-(5-Hydroxymethyl-3-phenyl-isoxazol-4-yl)-imidazol-1-yl]-benzonitrile], 28.2 nM.

For `Cc1onc(-c2ccccc2)c1-c1cn(-c2ccccc2)c(COCc2ccccc2)n1` [Example 146, 4-(2-Benzyloxymethyl-1-phenyl-1H-imidazol-4-yl)-5-methyl-3-phenyl-isoxazole], the Ki was found to be 17.1 nM.

`Cc1onc(-c2ccccc2)c1-c1cn(-c2ccc([N+](=O)[O-])cc2)c(COCc2ccc(F)cc2)n1` [Example 154, 4-[2-(4-Fluoro-benzyloxymethyl)-1-(4-nitro-phenyl)-1H-imidazol-4-yl]-5-methyl-3-phenyl-isoxazole]: the Ki came to 13.5 nM. The same measure, in the same setting: under `Cc1onc(-c2ccccc2)c1-c1cn(-c2ncccn2)c(COCc2ccccc2)n1` [Example 66, 2-[2-Benzyloxymethyl-4-(5-methyl-3-phenyl-isoxazol-4-yl)-imidazol-1-yl]-pyrimidine] stands 6.7 nM.

As for `Cc1onc(-c2ccccc2)c1-c1cn(-c2ccc([N+](=O)[O-])cc2)c(COCc2ccccc2F)n1` [Example 160, 4-[2-(2-Fluoro-benzyloxymethyl)-1-(4-nitro-phenyl)-1H-imidazol-4-yl]-5-methyl-3-phenyl-isoxazole], the Ki stood at 12.7 nM. With `Cc1ccc(COCc2nc(-c3c(-c4ccccc4)noc3C)cn2-c2ccc([N+](=O)[O-])cc2)cc1` [Example 153, 5-Methyl-4-[2-(4-methyl-benzyloxymethyl)-1-(4-nitro-phenyl)-1H-imidazol-4-yl]-3-phenyl-isoxazole], the Ki came out at 17.3 nM. As to `Cc1onc(-c2ccc(F)cc2)c1-c1cn(-c2ccc(C#N)cc2)cn1` [Example 116, 4-{4-[3-(4-Fluoro-phenyl)-5-methyl-isoxazol-4-yl]-imidazol-1-yl}-benzonitrile], the Ki was found to be 13.2 nM.

Regarding `Cc1onc(-c2ccccc2)c1-c1cn(-c2ccc([N+](=O)[O-])cc2)c(CO)n1` [Example 147, [4-(5-Methyl-3-phenyl-isoxazol-4-yl)-1-(4-nitro-phenyl)-1H-imidazol-2-yl]-methanol], the Ki is 18.1 nM.

For the compound `CC(=O)c1ccc(-n2cnc(-c3c(-c4ccccc4)noc3C)c2)cc1` [Example 12, 1-{4-[4-(5-Methyl-3-phenyl-isoxazol-4-yl)-imidazol-1-yl]-phenyl}-ethanone], the Ki is 5.5 nM. Turning to `Cc1onc(-c2ccccc2)c1-c1cn(-c2ccc([N+](=O)[O-])cc2)cn1` [Example 13, 5-Methyl-4-[1-(4-nitro-phenyl)-1H-imidazol-4-yl]-3-phenyl-isoxazole], the Ki was found to be 11.9 nM. Regarding `Cc1onc(-c2ccccc2)c1-c1cn(-c2ccc(C#N)cc2)c(COCc2ccccc2)n1` [Example 65, 4-[2-Benzyloxymethyl-4-(5-methyl-3-phenyl-isoxazol-4-yl)-imidazol-1-yl]-benzonitrile], the Ki came out at 19.1 nM. For `Cc1onc(-c2ccc(F)cc2)c1-c1cn(-c2ccc(F)cc2)cn1` [Example 114, 3-(4-Fluoro-phenyl)-4-[1-(4-fluoro-phenyl)-1H-imidazol-4-yl]-5-methyl-isoxazole], the inhibition constant (Ki) was 31 nM.

`CC(=O)c1ccc(-n2cnc(-c3c(-c4ccc(Br)cc4)noc3C)c2)cc1` [Example 49, 1-(4-{4-[3-(4-Bromo-phenyl)-5-methyl-isoxazol-4-yl]-imidazol-1-yl}-phenyl)-ethanone]: the Ki is 9.1 nM. `CCc1onc(-c2ccccc2)c1-c1cn(-c2ccc(C(C)=O)cc2)cn1` [Example 30, 1-{4-[4-(5-Ethyl-3-phenyl-isoxazol-4-yl)-imidazol-1-yl]-phenyl}-ethanone]: the Ki amounted to 9.9 nM. `O=[N+]([O-])c1ccc(-n2cnc(-c3c(-c4ccccc4)noc3C3CC3)c2)cc1` [Example 136, 5-Cyclopropyl-4-[1-(4-nitro-phenyl)-1H-imidazol-4-yl]-3-phenyl-isoxazole]: the Ki stood at 1.71 nM. Take `Cc1onc(-c2ccccc2)c1-c1cn(-c2ccccc2)cn1` [Example 2, 5-Methyl-3-phenyl-4-(1-phenyl-1H-imidazol-4-yl)-isoxazole]: the Ki is 21.7 nM. Still for that read-out and setting: under `Cc1onc(-c2ccccc2)c1-c1cn(-c2cccc([N+](=O)[O-])c2)cn1` [Example 82, 5-Methyl-4-[1-(3-nitro-phenyl)-1H-imidazol-4-yl]-3-phenyl-isoxazole] stands 19.5 nM.
